Values joined by “and” are separate entries in the source; they are usually repeats but may differ in a detail not shown here. Identical values can stand only once. Counter-ions that a name gives are not always drawn.
Experiments:
[1] = molecular target: hERG (Homo sapiens, UniProt Q12809); test: Non GLP hERG channel current study (manual patch); assay type: cell-based; settings: human
Method: (§1) The objective of this study was to examine the in vitro effects of three test articles on the hERG (human ether-a-go-go-related gene) channel current (a surrogate for the rapidly activating delayed rectifier cardiac potassium current, IKr). The concentration-response relationship was evaluated at near-physiological temperature (35-37° C.

[2] = molecular target: hERG (human ether-a-go-go-related gene) channel current (Homo sapiens, UniProt Q12809); test: Non GLP hERG channel current study (manual patch); assay type: cell-based; settings: for Hill coefficient: non GLP study
Method: as §1

[3] = in vitro; settings: 37° C.; for half-life at 10 μM / half-life: simulated gi fluid; for half-life at 10 μM / Half-Life, Rep. 1-3 / half-life / Half-Life, Mean: 10 μM; for % Compound Remaining, Mean / % Compound Remaining, Rep. 1-3: 100 μg/mL
Method: Gastrointestinal solution stability was performed along with the Caco-2 cell permeability assay study.

[4] = in vitro; settings: human
Text: (§2) Based on historical data obtained in the experimental model, the mean permeability value (Papp) for each reference compound was expected to fall within the predetermined specifications.
(§3) Fluorescein was used as the zero-permeability marker in all Caco-2 cell assays as a quality control for the integrity of the Caco-2 monolayer. […] Well-defined criteria (known or readily available to those of ordinary skill in the art) have been established for the acceptance of fluorescein results to validate monolayer integrity.
(§4) Testing concentrations for the in vitro permeability assessment were determined at 1%, 10%, and 100% of the highest strength dissolved in 250 mL. […]

[5] = tested on: Caco-2 monolayer; test: in vitro
Text: as §2, §3, §4

[6] = Equilibrium solubility study; settings: for solubility thermodynamic: 37 °C, thermodynamic from solid, Equilibrium solubility
[7] = Caco-2, Percent Recovery, Mean, B-A, 10 μM
[8] = Caco-2, Percent Recovery, Rep. 1-3, A-B, 10 μM
[9] = Caco-2, Percent Recovery, Rep. 1-3, B-A, 10 μM
[10] = Caco-2, pH 6.5, Permeability, Mean
[11] = Caco-2, pH 6.5, Permeability, Rep. 1-3
[12] = Caco-2, Percent Recovery, Mean, A-B, 10 μM
[13] = Caco-2, pH 6.5, Permeability, Mean, A-B, Caco-2, pH 6.5/7.4, 10 μM
[14] = Caco-2, pH 6.5, Permeability, Rep. 1-3, A-B, Caco-2, pH 6.5/7.4, 10 μM
[15] = Caco-2, pH 6.5, Permeability, Rep. 1-3, B-A, Caco-2, pH 6.5/7.4, 10 μM
[16] = Caco-2, pH 6.5, Permeability, Mean (SD)
[17] = simulated gastric fluid, 0 minutes
[18] = simulated gastric fluid, 60 minutes
[19] = simulated intestinal fluid, 0 minutes
[20] = simulated intestinal fluid, 180 minutes

Sequence of hERG (human ether-a-go-go-related gene) channel current (Q12809 whole entry): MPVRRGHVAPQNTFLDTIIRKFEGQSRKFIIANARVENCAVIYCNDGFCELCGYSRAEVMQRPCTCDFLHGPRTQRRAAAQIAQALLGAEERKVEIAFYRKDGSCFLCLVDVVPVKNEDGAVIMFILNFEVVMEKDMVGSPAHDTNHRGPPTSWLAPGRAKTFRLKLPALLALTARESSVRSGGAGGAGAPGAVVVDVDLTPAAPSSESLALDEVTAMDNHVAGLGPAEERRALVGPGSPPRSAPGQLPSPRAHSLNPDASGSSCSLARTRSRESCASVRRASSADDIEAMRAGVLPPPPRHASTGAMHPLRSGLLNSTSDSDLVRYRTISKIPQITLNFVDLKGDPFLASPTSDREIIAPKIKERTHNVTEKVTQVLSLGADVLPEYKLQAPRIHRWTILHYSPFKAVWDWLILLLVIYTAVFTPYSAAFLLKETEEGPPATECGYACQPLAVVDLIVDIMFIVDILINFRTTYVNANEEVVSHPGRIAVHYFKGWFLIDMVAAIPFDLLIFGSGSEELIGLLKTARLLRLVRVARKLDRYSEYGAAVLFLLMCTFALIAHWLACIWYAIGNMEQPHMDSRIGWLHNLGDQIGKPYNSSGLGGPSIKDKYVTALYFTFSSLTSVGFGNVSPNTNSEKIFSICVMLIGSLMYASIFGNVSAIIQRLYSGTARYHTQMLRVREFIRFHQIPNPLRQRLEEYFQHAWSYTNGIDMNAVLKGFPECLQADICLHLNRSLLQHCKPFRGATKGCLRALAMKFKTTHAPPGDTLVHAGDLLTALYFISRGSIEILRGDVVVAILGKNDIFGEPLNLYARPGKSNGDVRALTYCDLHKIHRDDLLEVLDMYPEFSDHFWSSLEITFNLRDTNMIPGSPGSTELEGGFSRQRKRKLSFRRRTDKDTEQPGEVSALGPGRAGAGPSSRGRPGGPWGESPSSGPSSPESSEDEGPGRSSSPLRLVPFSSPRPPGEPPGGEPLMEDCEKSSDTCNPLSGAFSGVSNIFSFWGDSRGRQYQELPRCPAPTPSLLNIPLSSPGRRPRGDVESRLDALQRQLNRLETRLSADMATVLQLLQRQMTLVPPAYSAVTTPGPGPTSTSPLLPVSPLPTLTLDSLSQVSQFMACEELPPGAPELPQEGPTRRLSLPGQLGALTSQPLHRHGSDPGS
Sequence of hERG (Q12809 whole entry): as above

## CCC(=O)C(CC(C)N(C)C)(c1ccccc1)c1ccccc1 (racemic) [racemic methadone]
[1]
  IC50: 1000 nM
[1]; 0.3 μM, read-out: Inhibition of hERG current (Mean, SEM; n=4)
  inhibition at 0.3 µM: 33.4%
[1]; 1 uM, read-out: Inhibition of hERG current (Mean, SEM; n=4)
  inhibition at 1 µM: 43.6%
[1]; 10 μM, read-out: Inhibition of hERG current (Mean, SEM; n=4)
  inhibition at 10 µM: 86.9%
[1]; 3 AM, read-out: Inhibition of hERG current (Mean, SEM; n=4)
  inhibition at 3 μM: 71.1%
[2]
  Hill coefficient: 0.743

## O=C(O)CCCc1ccc(N(CCCl)CCCl)cc1 [Chlorambucil, reference compound]
[3]; Mean, simulated intestinal fluid
  half-life at 10 μM: 26 min
[3]; Rep. 1-3, simulated intestinal fluid
  half-life at 10 μM: 26.2 min
[3]; simulated intestinal fluid
  Half-Life, Rep. 1-3: 25.7 min

## COc1cc2c(c(OC)c1OC)-c1ccc(OC)c(=O)cc1[C@@H](NC(C)=O)CC2 [Colchicine]
[4]; [7]
  recovery: 91%
[4]; [8]
  recovery: 88%
[4]; [9]
  recovery: 88%
[4]; [10]
  Papp A→B: 0.3 ×10⁻⁶ cm/s
  Papp B→A: 7.3 ×10⁻⁶ cm/s
[4]; [11]
  Papp A→B: 0.31 ×10⁻⁶ cm/s
  Papp B→A: 7.69 ×10⁻⁶ cm/s
[5]; A-B, 10 μM
  Percent Recovery, Rep. 1-3: 78%
[5]; B-A, 10 μM
  Percent Recovery, Rep. 1-3: 94%

## CC[C@H]1OC(=O)[C@H](C)[C@@H](O[C@H]2C[C@@](C)(OC)[C@@H](O)[C@H](C)O2)[C@H](C)[C@@H](O[C@@H]2O[C@H](C)C[C@H](N(C)C)[C@H]2O)[C@](C)(O)C[C@@H](C)C(=O)[C@H](C)[C@@H](O)[C@]1(C)O [Erythromycin, reference compound]
[3]; simulated gastric fluid
  Half-Life, Rep. 1-3: 6.5 min
[3]; Mean, simulated gastric fluid
  half-life: 6 min
[3]; Rep. 1-3, simulated gastric fluid
  half-life: 6.4 min

## CC(CCc1ccccc1)NCC(O)c1ccc(O)c(C(N)=O)c1 (stereo not drawn) [Labetalol]
[4]; [12]
  recovery: 117%
[4]; [8]
  recovery: 118%
[4]; [13]
  Papp A→B: 19.6 ×10⁻⁶ cm/s
[4]; Caco-2, pH 6.5, Permeability, Mean, B-A, Caco-2, pH 6.5/7.4, 10 μM
  Papp B→A: 49.3 ×10⁻⁶ cm/s
[4]; [14]
  Papp A→B: 20.2 ×10⁻⁶ cm/s
[4]; [15]
  Papp B→A: 48.7 ×10⁻⁶ cm/s

## CC(C)[N+](C)(CCOC(=O)C1c2ccccc2Oc2ccccc21)C(C)C [Propanthaline, reference compound]
[3]; simulated gastric fluid
  Half-Life, Mean: >60 min
  Half-Life, Rep. 1-3: >60 min
[3]; simulated intestinal fluid
  Half-Life, Mean: >180 min
  Half-Life, Rep. 1-3: 253.1 min and 251.2 min and 227.0 min

## CC(C)NCC(O)COc1cccc2ccccc12 (stereo not drawn) [Propranolol]
[4]; [12]
  recovery: 104%
[4]; [7]
  recovery: 108%
[4]; [8]
  recovery: 106%
[4]; [9]
  recovery: 106%
[4]; [10]
  Papp B→A: 47.5 ×10⁻⁶ cm/s
[4]; [13]
  Papp A→B: 40.9 ×10⁻⁶ cm/s
[4]; [11]
  Papp B→A: 48.1 ×10⁻⁶ cm/s
[4]; [14]
  Papp A→B: 45.4 ×10⁻⁶ cm/s
[4]; [15]
  Papp B→A at 10 μM: 48.8 ×10⁻⁶ cm/s
[5]; A-B, 10 μM
  Percent Recovery, Rep. 1-3: 99%
[5]; A-B, Caco-2, pH 6.5/7.4, 10 μM
  Permeability, Rep. 1-3: 40.35 10^−6 cm/s and 36.94 10^−6 cm/s
[5]; B-A, 10 μM
  Percent Recovery, Rep. 1-3: 115% and 102%
[5]; human, Caco-2, pH 6.5
  Permeability, Rep. 1-3: 45.79 10^−6 cm/s

## CNC(=C[N+](=O)[O-])NCCSCc1ccc(CN(C)C)o1 [Ranitidine]
[4]; [12]
  recovery: 101%
[4]; [8]
  recovery: 100%
[4]; [10]
  Papp A→B: 0.7 ×10⁻⁶ cm/s
  Papp B→A: 2.4 ×10⁻⁶ cm/s
[4]; [11]
  Papp A→B: 0.8 ×10⁻⁶ cm/s
  Papp B→A: 2.54 ×10⁻⁶ cm/s
[5]; A-B, 10 μM
  Percent Recovery, Rep. 1-3: 99%
[5]; B-A, 10 μM
  Percent Recovery, Rep. 1-3: 96% and 92%

## CCC(=O)C(C[C@H](C)N(C)C)(c1ccccc1)c1ccccc1 [esmethadone HCl]
[4]; Caco-2, Mean recovery values, across the assays
  recovery: 51 to 74%
[4]; Caco-2, Percent Recovery, Mean (SD), A-B, 1 μg/mL
  recovery: 51%
[4]; Caco-2, Percent Recovery, Mean (SD), A-B, 10 μg/mL
  recovery: 57%
[4]; Caco-2, Percent Recovery, Mean (SD), A-B, 100 μg/mL
  recovery: 61%
[4]; Caco-2, Percent Recovery, Mean (SD), B-A, 1 μg/mL
  recovery: 60%
[4]; Caco-2, Percent Recovery, Mean (SD), B-A, 10 μg/mL
  recovery: 74%
[4]; Caco-2, Percent Recovery, Mean (SD), B-A, 100 μg/mL
  recovery: 74%
[4]; Caco-2, Percent Recovery, Rep. 1-3, A-B, 1 μg/mL
  recovery: 53%
[4]; Caco-2, Percent Recovery, Rep. 1-3, A-B, 10 μg/mL
  recovery: 57%
[4]; Caco-2, Percent Recovery, Rep. 1-3, A-B, 100 μg/mL
  recovery: 64%
[4]; Caco-2, Percent Recovery, Rep. 1-3, B-A, 1 μg/mL
  recovery: 65%
[4]; Caco-2, Percent Recovery, Rep. 1-3, B-A, 10 μg/mL
  recovery: 67%
[4]; Caco-2, Percent Recovery, Rep. 1-3, B-A, 100 μg/mL
  recovery: 74%
[4]; [16]
  Papp A→B: 16.3 ×10⁻⁶ cm/s
  Papp B→A: 28.6 ×10⁻⁶ cm/s
[4]; [11]
  Papp A→B: 21 ×10⁻⁶ cm/s
  Papp B→A: 29.4 ×10⁻⁶ cm/s
[5]; A-B, 10 μg/mL
  Percent Recovery, Rep. 1-3: 54%
[5]; A-B, 100 μg/mL
  Percent Recovery, Rep. 1-3: 56%
[5]; B-A, 1 μg/mL
  Percent Recovery, Rep. 1-3: 58% and 59%
[5]; B-A, 10 μg/mL
  Percent Recovery, Rep. 1-3: 82%
[5]; B-A, 100 μg/mL
  Percent Recovery, Rep. 1-3: 82% and 68%
[5]; Caco-2
  Permeability category: high permeability
[6]; pH 1.2, simulated gastric fluid, Mean, pH 1.2, 37° C.
  solubility thermodynamic: 58.8 mg/mL
[6]; pH 1.2, simulated gastric fluid, replicates, pH 1.2, 37° C., individual replicates
  solubility thermodynamic: 62.1 mg/mL
[6]; pH 4.5, aqueous buffer, Mean, pH 4.5, 37° C.
  solubility thermodynamic: 66.9 mg/mL
[6]; pH 4.5, aqueous buffer, replicates, pH 4.5, 37° C., individual replicates
  solubility thermodynamic: 67 mg/mL
[6]; pH 6.8, aqueous buffer, Mean, pH 6.8, 37° C.
  solubility thermodynamic: 3.2 mg/mL
[6]; pH 6.8, aqueous buffer, replicates, pH 6.8, 37° C., individual replicates
  solubility thermodynamic: 3.1 mg/mL
[6]; over the total time of the solubility study
  Stability of the drug substance in each buffer: ≤ 10%
[6]; pH 1.2, 37° C., individual replicates
  Equilibrium solubility, replicates: 60.0 mg/mL and 54.2 mg/mL
[6]; pH 4.5, 37° C., individual replicates
  Equilibrium solubility, replicates: 66.7 mg/mL and 66.8 mg/mL
[6]; pH 6.8, 37° C., individual replicates
  Equilibrium solubility, replicates: 3.2 mg/mL
[3]; [17]
  % Compound Remaining, Mean: 100 % remaining
  % Compound Remaining, Rep. 1-3: 100.0 % remaining
[3]; [18]
  % Compound Remaining, Mean: 109 % remaining
  % Compound Remaining, Rep. 1-3: 110.2 % remaining and 127.3 % remaining and 90.0 % remaining
[3]; [19]
  % Compound Remaining, Mean: 100 % remaining
  % Compound Remaining, Rep. 1-3: 100.0 % remaining
[3]; [20]
  % Compound Remaining, Mean: 97 % remaining
  % Compound Remaining, Rep. 1-3: 89.6 % remaining and 96.6 % remaining and 105.9 % remaining

## CCC(=O)C(C[C@@H](C)N(C)C)(c1ccccc1)c1ccccc1 [levomethadone]
[1]; 0.366 μM (n=5), 35-37° C., read-out: Inhibition of hERG current (Mean±SEM)
  inhibition at 0.366 µM: 36 ± 4.9%
[1]; 1.13 μM (n=4), read-out: Inhibition of hERG current (Mean±SEM)
  inhibition at 1.13 µM: 54.3 ± 6.7%
[1]; 3.32 μM (n=4), read-out: Inhibition of hERG current (Mean±SEM)
  inhibition at 3.32 µM: 73.6 ± 1.5%
[1]; 11.2 μM, read-out: Inhibition of hERG current (Mean±SEM)
  inhibition at 11.2 µM: 90 ± 0.5%
[2]
  IC50: 828 nM
  Hill coefficient: 0.764

Reference: patent publication US20240122878A1 (priority 2021, published 2024)
